Test systems include SF-295 CNS; A498 renal; HCT-15 colon; IGROV1 ovarian; LOX IMVI melanoma; NCI-H226 lung; NCI-H23 lung; EKVX NSCLC; MDA-MB-231 breast; 786-0 renal.
Holding throughout (assay): NCI anticancer screen, dose series, 48 h

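Following 48 hours of exposure in 96-well plates, responses at five concentrations were used to interpolate endpoints linearly. Here, GI50 denotes the concentration required for 50% inhibition of growth. TGI denotes the concentration required for complete inhibition of growth.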 Some results are limits rather than exact numbers.

For `CO[C@H]1C[C@@H]2CC[C@@H](C)[C@@](O)(O2)C(=O)C(=O)N2CCCC[C@H]2C(=O)O[C@H]([C@H](C)C[C@@H]2CC[C@@H](OC(=O)C(C)(CO)CO)[C@H](OC)C2)CC(=O)[C@H](C)/C=C(\C)[C@@H](O)[C@@H](OC)C(=O)[C@H](C)C[C@H](C)\C=C/C=C/C=C/1C`, the GI50 in the assay with SF-295 CNS was under 0.001 µM; with A498 renal it was 0.00187 µM; with HCT-15 colon it was 0.112 µM; in the assay on IGROV1 ovarian, under 0.001 µM; with LOX IMVI melanoma, 0.00435 µM; in the assay on NCI-H226 lung, 0.0273 µM. For the same compound, the GI50 with NCI-H23 lung is 0.0866 µM; in the assay with EKVX NSCLC it was 0.00167 µM; in the assay on MDA-MB-231 breast, over 4.32 µM; in the assay on 786-0 renal, 0.0149 µM. The TGI in the assay on SF-295 CNS, with HCT-15 colon, in the assay on IGROV1 ovarian, in the assay with LOX IMVI melanoma, in the assay on NCI-H226 lung and in the assay on NCI-H23 lung was over 10 µM each time. For the same compound, the TGI in the assay on EKVX NSCLC, with MDA-MB-231 breast and with 786-0 renal was over 10 µM throughout.
In the case of `Oc1ccc(Cl)cc1C(c1cc(Cl)ccc1O)C(Cl)(Cl)Cl`, the GI50 with SF-295 CNS is 1.97 µM; in the assay with A498 renal it was 1.67 µM; with HCT-15 colon it was 1.94 µM; in the assay on IGROV1 ovarian it was 1.63 µM; in the assay with LOX IMVI melanoma, 1.66 µM; in the assay with NCI-H226 lung, 1.94 µM. Also, the GI50 in the assay on NCI-H23 lung is 1.73 µM; in the assay on EKVX NSCLC, 1.84 µM; with MDA-MB-231 breast, 1.71 µM; in the assay with 786-0 renal it was 2 µM. For the same compound, the TGI in the assay on SF-295 CNS was determined as 4.76 µM; with A498 renal, 3.53 µM; with HCT-15 colon, 5.07 µM; in the assay on IGROV1 ovarian, 5.67 µM; in the assay with LOX IMVI melanoma it was 3.22 µM; in the assay on NCI-H226 lung it was 4.81 µM. In addition, the TGI is 3.96 µM in the assay on NCI-H23 lung, 5.8 µM in the assay on EKVX NSCLC, 3.86 µM in the assay on MDA-MB-231 breast and 3.99 µM in the assay with 786-0 renal.
For the compound `CCCCN(CCCC)C(=O)[C@H](CC)[C@@H]1CC[C@@H](C)[C@@H]([C@H](C)[C@@H](O)[C@@H](C)C(=O)[C@H](CC)C2O[C@]3(C=C[C@@H](O)[C@]4(CC[C@@](C)([C@H]5CC[C@](O)(CC)[C@H](C)O5)O4)O3)[C@H](C)C[C@@H]2C)O1` (some centres undefined), the GI50 in the assay on SF-295 CNS is 2.06 µM; in the assay with A498 renal, 1.99 µM; with HCT-15 colon, 2.31 µM; in the assay with IGROV1 ovarian, 3 µM; in the assay on LOX IMVI melanoma, 1.43 µM; with NCI-H226 lung, 2.01 µM. Moreover, the GI50 in the assay with NCI-H23 lung is 2.17 µM; with EKVX NSCLC it was 2.32 µM; in the assay on MDA-MB-231 breast it was 1.57 µM; in the assay on 786-0 renal, 2.49 µM. The TGI turned out to be 6.38 µM in the assay on SF-295 CNS; 6.24 µM with A498 renal; 6.12 µM in the assay on HCT-15 colon; 15.2 µM in the assay on IGROV1 ovarian; 2.97 µM with LOX IMVI melanoma; 5.51 µM in the assay on NCI-H226 lung. In addition, the TGI in the assay with NCI-H23 lung worked out at 5.96 µM; in the assay on EKVX NSCLC, 8.8 µM; in the assay with MDA-MB-231 breast it was 3.19 µM; in the assay on 786-0 renal it was 7.44 µM.
In the case of `Clc1nccc2c(-c3csc(-c4c[nH]c5ccc(Br)cc45)n3)c[nH]c12`, the GI50 in the assay with SF-295 CNS is 2.48 µM; with A498 renal, 1.56 µM; with HCT-15 colon, 1.4 µM; in the assay on IGROV1 ovarian it was 2.51 µM; with LOX IMVI melanoma, 1.63 µM; with NCI-H226 lung, 2.4 µM. The GI50 is 2.42 µM in the assay on NCI-H23 lung, 3.11 µM in the assay with EKVX NSCLC, 1.68 µM in the assay on MDA-MB-231 breast and 1.37 µM with 786-0 renal. Moreover, the TGI with SF-295 CNS was 5.61 µM; in the assay on A498 renal, 4.84 µM; with HCT-15 colon, 3.33 µM; in the assay on IGROV1 ovarian it was 15.4 µM; with LOX IMVI melanoma it was 3.25 µM; with NCI-H226 lung, 13.8 µM. For the same compound, the TGI in the assay with NCI-H23 lung was 8.57 µM; in the assay on EKVX NSCLC it was 12.4 µM; in the assay on MDA-MB-231 breast it was 4.62 µM; in the assay on 786-0 renal, 2.93 µM.
On to `CCOCC1(COCC)CCC(c2[nH]ncc2CN(C)CCNC)CC1`, for which the GI50 in the assay with SF-295 CNS is over 100 µM; in the assay on A498 renal it was 8.25 µM; with HCT-15 colon it was over 100 µM; in the assay on IGROV1 ovarian, over 100 µM; with LOX IMVI melanoma, over 100 µM; in the assay on NCI-H226 lung, over 100 µM. The GI50 with NCI-H23 lung, with EKVX NSCLC, with MDA-MB-231 breast and in the assay with 786-0 renal was over 100 µM in each case. In addition, the TGI with SF-295 CNS, in the assay on A498 renal, with HCT-15 colon, in the assay on IGROV1 ovarian, in the assay on LOX IMVI melanoma and with NCI-H226 lung was over 100 µM in each case. The TGI in the assay on NCI-H23 lung, in the assay with EKVX NSCLC, with MDA-MB-231 breast and with 786-0 renal was over 100 µM throughout.
Consider `C=C1C(=O)O[C@H]2[C@H]1CC/C(COC(=O)c1cc(OC)c(OC)c(OC)c1)=C\CC[C@@]1(C)O[C@@H]21`, for which the GI50 was 3.84 µM in the assay on SF-295 CNS; 2.57 µM in the assay on A498 renal; 0.418 µM in the assay with HCT-15 colon; 0.477 µM in the assay with IGROV1 ovarian; 1.34 µM in the assay on LOX IMVI melanoma; 1.4 µM in the assay with NCI-H226 lung. Further, the GI50 was 1.7 µM in the assay with NCI-H23 lung, 1.78 µM with EKVX NSCLC, 1.54 µM with MDA-MB-231 breast and 1.27 µM in the assay on 786-0 renal. Besides, the TGI in the assay on SF-295 CNS stood at 15.8 µM; in the assay on A498 renal, 8.56 µM; in the assay on HCT-15 colon it was 1.82 µM; in the assay on IGROV1 ovarian, 2.05 µM; in the assay on LOX IMVI melanoma it was 2.73 µM; with NCI-H226 lung, 3.63 µM. Besides, the TGI in the assay on NCI-H23 lung worked out at 3.95 µM; in the assay with EKVX NSCLC, 4.5 µM; with MDA-MB-231 breast, 4.16 µM; in the assay on 786-0 renal, 2.72 µM.
As for `CCOC(=O)[C@@H](C)C[C@H](Cc1ccccc1)NC(=O)c1csc([C@@H](C[C@H](C(C)C)N(C)C(=O)[C@@H](NC(=O)[C@H]2CCCCN2C)C(C)(C)CC)OC(C)=O)n1`, the GI50 in the assay with SF-295 CNS is under 0.00167 µM; in the assay with A498 renal, under 0.00167 µM; in the assay with HCT-15 colon it was under 0.00167 µM; with IGROV1 ovarian, 0.0021 µM; in the assay on LOX IMVI melanoma, under 0.00167 µM; in the assay on NCI-H226 lung, under 0.00167 µM. Besides, the GI50 is 0.00251 µM in the assay with NCI-H23 lung, 0.00232 µM in the assay with EKVX NSCLC, 0.00283 µM in the assay on MDA-MB-231 breast and under 0.00167 µM with 786-0 renal. Moreover, the TGI was 1.87 µM in the assay with SF-295 CNS; 0.0114 µM in the assay on A498 renal; over 5.93 µM in the assay with HCT-15 colon; over 16.7 µM with IGROV1 ovarian; 6.08 µM with LOX IMVI melanoma; 0.0336 µM in the assay with NCI-H226 lung. The TGI was over 16.7 µM with NCI-H23 lung, over 16.7 µM in the assay on EKVX NSCLC, 1.18 µM with MDA-MB-231 breast and 4.86 µM in the assay on 786-0 renal.
As for `NS(=O)(=O)c1ccc(Nc2cc(-c3ccc(O)c(F)c3)[nH]n2)cc1`, the GI50 with SF-295 CNS, in the assay on A498 renal, in the assay on HCT-15 colon, with IGROV1 ovarian, in the assay on LOX IMVI melanoma and with NCI-H226 lung was over 25 µM throughout. Also, the GI50 with NCI-H23 lung, in the assay on EKVX NSCLC, with MDA-MB-231 breast and in the assay on 786-0 renal was over 25 µM each time. In addition, the TGI in the assay with SF-295 CNS, in the assay on A498 renal, with HCT-15 colon, in the assay with IGROV1 ovarian, in the assay on LOX IMVI melanoma and in the assay with NCI-H226 lung was over 25 µM throughout. Further, the TGI with NCI-H23 lung, in the assay on EKVX NSCLC, in the assay with MDA-MB-231 breast and in the assay with 786-0 renal was over 25 µM each time.

Source of the values: PubChem BioAssay (NCI).
